Assay results from PubChem BioAssay AID1918948 (Molecular Pharmacology Branch, DTP, NCI, 2023).

Tested on: K-562 leukemia growth, % test/control
Assay: Anticancer human tumor K-562 cell line growth inhibition;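 also: spheroids exposed to compounds for 7 days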;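 as to viability, T/C: 100% = DMSO vehicle wells and lower values mean fewer viable cells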
Conditions: spheroids with HUVEC and MSC; for IC50: curve of first compound; for viability, T/C: stronger effect = lower value
Method in brief: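 Multicellular complex spheroids of tumor cells with human endothelial cells (HUVEC) and mesenchymal stem cells; the LSD1 inhibitor iadademstat was combined with standard-of-care or investigational agents. Top concentration at or near clinical Cmax, half-log dilutions; final DMSO ≤0.25%.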

[1] = second compound 0.1 µM, first compound 0.00316 µM
[2] = second compound 0.1 µM, first compound 0.01 µM
[3] = second compound 0.1 µM, first compound 0.0316 µM
[4] = second compound 0.1 µM, first compound 0.1 µM
[5] = second compound 0.1 µM, first compound 0.316 µM
[6] = second compound 0.1 µM, first compound 1 µM
[7] = second compound 0.316 µM, first compound 0.00316 µM
[8] = second compound 0.316 µM, first compound 0.01 µM
[9] = second compound 0.316 µM, first compound 0.0316 µM
[10] = second compound 0.316 µM, first compound 0.1 µM
[11] = second compound 0.316 µM, first compound 0.316 µM
[12] = second compound 0.316 µM, first compound 1 µM
[13] = second compound 1 µM, first compound 0.00316 µM
[14] = second compound 1 µM, first compound 0.01 µM
[15] = second compound 1 µM, first compound 0.0316 µM
[16] = second compound 1 µM, first compound 0.1 µM
[17] = second compound 1 µM, first compound 0.316 µM
[18] = second compound 1 µM, first compound 1 µM
[19] = second compound 3.16 µM, first compound 0.00316 µM
[20] = second compound 3.16 µM, first compound 0.01 µM
[21] = second compound 3.16 µM, first compound 0.0316 µM
[22] = second compound 3.16 µM, first compound 0.1 µM
[23] = second compound 3.16 µM, first compound 0.316 µM
[24] = second compound 3.16 µM, first compound 1 µM
[25] = second compound 10 µM, first compound 0.00316 µM
[26] = second compound 10 µM, first compound 0.01 µM
[27] = second compound 10 µM, first compound 0.0316 µM
[28] = second compound 10 µM, first compound 0.1 µM
[29] = second compound 10 µM, first compound 0.316 µM
[30] = second compound 10 µM, first compound 1 µM
[31] = second compound 0.1 µM, first compound 3.16 µM
[32] = second compound 0.1 µM, first compound 10 µM
[33] = second compound 0.316 µM, first compound 3.16 µM
[34] = second compound 0.316 µM, first compound 10 µM
[35] = second compound 1 µM, first compound 3.16 µM
[36] = second compound 1 µM, first compound 10 µM
[37] = second compound 3.16 µM, first compound 3.16 µM
[38] = second compound 3.16 µM, first compound 10 µM
[39] = second compound 10 µM, first compound 3.16 µM
[40] = second compound 10 µM, first compound 10 µM

SMILES | IC50 (second compound 0.1 µM) [nM] | IC50 (second compound 0.316 µM) [nM] | IC50 (second compound 1 µM) [nM] | IC50 (second compound 3.16 µM) [nM] | IC50 (second compound 10 µM) [nM] | viability, T/C [3] [%] | viability, T/C [4] [%] | viability, T/C [5] [%] | viability, T/C [6] [%] | viability, T/C [9] [%] | viability, T/C [10] [%] | viability, T/C [11] [%] | viability, T/C [12] [%] | viability, T/C [15] [%] | viability, T/C [16] [%] | viability, T/C [17] [%] | viability, T/C [18] [%] | viability, T/C [21] [%] | viability, T/C [22] [%] | viability, T/C [23] [%] | other results
CC1COCCN1c1cc(-c2ccnn2C)c2ccnc(-c3ccn[nH]3)c2n1 (stereo not given) + NC1CC1c1ccc(-c2cccc(O)c2)cc1 | < 3.16 | < 3.16 | < 3.16 | < 3.16 | < 3.16 | 2.71 | 1.86 | 2.44 | 2.27 | 2.23 | 1.78 | 1.8 | 1.5 | 2.17 | 1.57 | 1.71 | 1.4 | 2.11 | 1.71 | 1.83 | viability, T/C [1]: 28.6%; viability, T/C [2]: 16.1%; viability, T/C [7]: 24.4%; viability, T/C [8]: 10.3%; viability, T/C [13]: 16.4%; viability, T/C [14]: 7.71%; viability, T/C [19]: 10.6%; viability, T/C [20]: 5.99%; viability, T/C [24]: 1.4%; viability, T/C [25]: 6.46%; viability, T/C [26]: 4.59%; viability, T/C [27]: 2.33%; viability, T/C [28]: 1.51%; viability, T/C [29]: 1.64%; viability, T/C [30]: 1.74%
CC1COCCN1c1cc(C2(S(C)(=N)=O)CC2)nc(-c2ccnc3[nH]ccc23)n1 (stereo not given) + NC1CC1c1ccc(-c2cccc(O)c2)cc1 | 1590 | 1580 | 1500 | 1490 | 1350 | 115 | 107 | 108 | 77.3 | 100 | 107 | 101 | 77.9 | 105 | 104 | 103 | 74 | 109 | 105 | 99.2 | viability, T/C [31]: 9.88%; viability, T/C [32]: 2.95%; viability, T/C [33]: 7.2%; viability, T/C [34]: 2.06%; viability, T/C [35]: 6.19%; viability, T/C [36]: 1.92%; viability, T/C [24]: 72.8%; viability, T/C [37]: 6.87%; viability, T/C [38]: 2.7%; viability, T/C [27]: 105%; viability, T/C [28]: 105%; viability, T/C [29]: 106%; viability, T/C [30]: 65.7%; viability, T/C [39]: 5.01%; viability, T/C [40]: 2.52%
COc1ccc([C@@H](O)c2cc(-c3ncnc4cc(N5CCOCC5)ccc34)c(F)cc2Cl)nn1 + NC1CC1c1ccc(-c2cccc(O)c2)cc1 | 7900 | 7530 | 6490 | 4840 | 1160 | 111 | 107 | 106 | 106 | 104 | 107 | 101 | 98.6 | 99.1 | 98.8 | 99.5 | 98.3 | 103 | 99.6 | 94.2 | viability, T/C [31]: 93.1%; viability, T/C [32]: 38.8%; viability, T/C [33]: 85.4%; viability, T/C [34]: 38.2%; viability, T/C [35]: 77%; viability, T/C [36]: 33.8%; viability, T/C [24]: 83.5%; viability, T/C [37]: 59.7%; viability, T/C [38]: 32.7%; viability, T/C [27]: 96.6%; viability, T/C [28]: 96.9%; viability, T/C [29]: 66.7%; viability, T/C [30]: 52.9%; viability, T/C [39]: 38.9%; viability, T/C [40]: 24.6%
O=C(C=Cn1cnc(-c2cc(C(F)(F)F)cc(C(F)(F)F)c2)n1)NNc1cnccn1 + NC1CC1c1ccc(-c2cccc(O)c2)cc1 | 115 | 76.5 | 67.6 | 66.7 | 50.2 | 93.5 | 56.2 | 9.94 | 1.19 | 83.1 | 40.1 | 9.06 | 1.23 | 80.7 | 34 | 8.67 | 1.78 | 73.4 | 37.6 | 8.04 | viability, T/C [1]: 106%; viability, T/C [2]: 103%; viability, T/C [7]: 106%; viability, T/C [8]: 103%; viability, T/C [13]: 102%; viability, T/C [14]: 96.4%; viability, T/C [19]: 97%; viability, T/C [20]: 94.9%; viability, T/C [24]: 1.27%; viability, T/C [25]: 91.4%; viability, T/C [26]: 91.3%; viability, T/C [27]: 59.8%; viability, T/C [28]: 32.7%; viability, T/C [29]: 6.57%; viability, T/C [30]: 2.98%
